# Data published in patent publication US20170009272A1, “IN-SILICO BASED TECHNIQUES IN THE IDENTIFICATION OF POTENT ß-GLUCORONIDASE INHIBITORS” (priority 2015, published 2017).
# Target: T1, β-glucoronidase (Escherichia coli, UniProt P05804)
# T1 construct: purchased Sigma Aldrich G7396-25KU
# Experiment: β-Glucuronidase inhibition assay (spectrophotometric, p-nitrophenyl-β-D-glucuronide substrate)
# Assay type: biochemical
# Details: not given
# Description: β-Glucuronidase inhibition assay protocol: Inhibitory activity of β-Glucuronidase was determined with the help of spectrophotometric method by measuring the absorbance at 405 nm of p-nitro phenol formed from the substrate (p-nitro phenyl-β-D-glucuronide, N1627-250 mg, Sigma Aldrich). The total reaction volume was 250 μL. The compound dissolved in DMSO (100%), which becomes 2% in the ultimate assay (250 μL) and the similar conditions were used for standard (D-saccharin acid 1,4-lactone, Sigma Aldrich). The reaction mixture contained 185 μL of 0.1 M acetate buffer, 5 μL of test compound solution, 10 μL of (1U) enzyme solution (G7396-25KU, Sigma Aldrich) was incubated at 37° C. for 30 min. The plates were read on a multiplate reader (SpectraMax plus 384) at 405 nm after the addition of 50 μL of 0.4 mM p-nitrophenyl-β-D-glucuronide. All assays were performed in triplicate. IC50 Values were calculated by using EZ-Fit software (Perrella Scientific Inc., Amherst, Mass., U.S.A.). These values are the mean of three independent readings.
# T1 sequence (P05804 whole entry): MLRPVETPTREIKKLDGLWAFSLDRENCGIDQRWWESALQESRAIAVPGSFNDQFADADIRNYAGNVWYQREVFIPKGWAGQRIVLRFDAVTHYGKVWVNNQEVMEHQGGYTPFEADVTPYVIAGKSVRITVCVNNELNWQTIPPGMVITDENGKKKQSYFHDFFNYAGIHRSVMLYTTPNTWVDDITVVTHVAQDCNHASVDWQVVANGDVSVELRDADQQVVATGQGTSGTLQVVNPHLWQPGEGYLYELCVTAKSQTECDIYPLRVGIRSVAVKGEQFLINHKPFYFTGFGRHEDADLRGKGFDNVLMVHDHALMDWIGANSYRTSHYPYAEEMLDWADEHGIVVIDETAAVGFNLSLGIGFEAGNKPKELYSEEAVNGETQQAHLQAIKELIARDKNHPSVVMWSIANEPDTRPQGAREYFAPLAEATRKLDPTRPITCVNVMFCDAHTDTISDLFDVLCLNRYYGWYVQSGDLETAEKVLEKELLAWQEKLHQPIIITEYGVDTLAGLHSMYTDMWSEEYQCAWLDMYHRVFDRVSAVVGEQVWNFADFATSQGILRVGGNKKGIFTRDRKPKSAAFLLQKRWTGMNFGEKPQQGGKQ
row,SMILES,IC50 [µM]
1,Oc1cccc(C(c2c[nH]c3ccc(Br)cc23)c2c[nH]c3ccc(Br)cc23)c1O [Compound 1],1.2 ± 1.03
2,COc1ccc(C=NN2C(c3n[nH]c(=S)[nH]3)=C(O)c3ccccc3S2(=O)=O)cc1OC [Compound 5],11.41 ± 0.04
3,N#Cc1ccc2[nH]cc(C(c3ccccc3[N+](=O)[O-])c3c[nH]c4ccc(C#N)cc34)c2c1 [Compound 11],34.9 ± 0.21

# Same assay, conditions: β-glucuronidase; 37° C., 30 min incubation, absorbance at 405 nm; mean of three readings; read-out: IC50
row,SMILES,IC50 [µM]
1,O=C(/C=C/c1ccc(O)cc1)OC[C@@H]1C[C@H](Oc2cc(O)c3c(=O)cc(-c4ccc(O)cc4)oc3c2)[C@@H](O)[C@H](O)[C@H]1O [Compound 3],4.5 ± 0.44
2,C=S1(=O)c2ccccc2C(O)=C(c2n[nH]c(=S)[nH]2)N1/N=C/c1ccc(OC)c(OC)c1OC (centres unmarked) [Compound 6],11.8 ± 0.86
3,CCN(CC)c1ccc(/C=N/N2C(c3n[nH]c(=S)[nH]3)=C(O)c3ccccc3S2(=O)=O)cc1 [Compound 7],14.7 ± 1.88
4,"O=C1OC(C(O)C(=O)O)C(O)C1O [D-sacharric 1,4-lactone, D-saccharic acid, 1,4-lactone, reference compound]",45.5 ± 2.16

# Same assay, conditions: β-glucuronidase; test concentration not given
row,SMILES,% inhibition [%]
1,Oc1cccc(C(c2c[nH]c3ccc(Br)cc23)c2c[nH]c3ccc(Br)cc23)c1O [Compound 1],97.8
2,O=C(/C=C/c1ccc(O)cc1)OC[C@@H]1C[C@H](Oc2cc(O)c3c(=O)cc(-c4ccc(O)cc4)oc3c2)[C@@H](O)[C@H](O)[C@H]1O [Compound 3],96.9
3,COc1ccc(C=NN2C(c3n[nH]c(=S)[nH]3)=C(O)c3ccccc3S2(=O)=O)cc1OC [Compound 5],78.1
4,C=S1(=O)c2ccccc2C(O)=C(c2n[nH]c(=S)[nH]2)N1/N=C/c1ccc(OC)c(OC)c1OC (centres unmarked) [Compound 6],81.0
5,CCN(CC)c1ccc(/C=N/N2C(c3n[nH]c(=S)[nH]3)=C(O)c3ccccc3S2(=O)=O)cc1 [Compound 7],95.1
6,COc1cccc(/C=N/N2C(c3n[nH]c(=S)[nH]3)=C(O)c3ccccc3S2(=O)=O)c1O [Compound 10],93.4
7,N#Cc1ccc2[nH]cc(C(c3ccccc3[N+](=O)[O-])c3c[nH]c4ccc(C#N)cc34)c2c1 [Compound 11],57.3
8,"O=C1OC(C(O)C(=O)O)C(O)C1O [D-sacharric 1,4-lactone, D-saccharic acid, 1,4-lactone, reference compound]",89.4

# Tested on: not listed separately
# Experiment: Cytotoxicity assay (MTT) on 3T3 mouse fibroblast cells
# Assay type: cell-based
# Details: 1-30 μM tested
# Description: (§1) Cytotoxicity assay Protocol: Cytotoxic activity of compounds was evaluated in 96-well flat-bottomed micro plates by using the standard MTT (3-[4,5-dimethylthiazole-2-yl]-2,5-diphenyl-tetrazolium bromide) colorimetric assay (15). For this purpose, 3T3 (mouse fibroblast) cells were cultured in Dulbecco's Modified Eagle Medium, supplemented with 5% of fetal bovine serum (FBS), 100 IU/ml of penicillin and 100 μg/ml of streptomycin in 75 cm^2 flasks, and kept in 5% CO2 incubator at 37° C. Exponentially growing cells were harvested, counted with haemocytometer and diluted with a particular medium. Cell culture with the concentration of 5×10^4 cells/ml was prepared and introduced (100 μL/well) into 96-well plates.
# (§2) After overnight incubation, medium was removed and 200 μL of fresh medium was added with different concentrations of compounds (1-30 μM). After 48 hrs, 200 ptL MTT (0.5 mg/ml) was added to each well and incubated further for 4 hrs. Subsequently, 100 μLof DMSO was added to each well. The extent of MTT reduction to formazan within cells was calculated by measuring the absorbance at 540 nm, using a micro plate reader (Spectra Max plus, Molecular Devices, Calif., USA). The cytotoxicity was recorded as concentration causing 50% growth inhibition (IC50) for 3T3 cells. The percent inhibition was calculated by using the following formula
# (§3) % inhibition=100−((mean of O.D of test compound−mean of O.D of negative control)/(mean of O.D of positive control−mean of O.D of negative control)*100).
# (§4) The results (% inhibition) were processed by using Soft-Max Pro software (Molecular Device, USA).
row,SMILES,IC50 at 48 h [µM]
1,Oc1cccc(C(c2c[nH]c3ccc(Br)cc23)c2c[nH]c3ccc(Br)cc23)c1O [Compound 1],16.8 ± 0.997
2,O=C(/C=C/c1ccc(O)cc1)OC[C@@H]1C[C@H](Oc2cc(O)c3c(=O)cc(-c4ccc(O)cc4)oc3c2)[C@@H](O)[C@H](O)[C@H]1O [Compound 3],> 30
3,COc1ccc(C=NN2C(c3n[nH]c(=S)[nH]3)=C(O)c3ccccc3S2(=O)=O)cc1OC [Compound 5],13.8 ± 0.967
4,C=S1(=O)c2ccccc2C(O)=C(c2n[nH]c(=S)[nH]2)N1/N=C/c1ccc(OC)c(OC)c1OC (centres unmarked) [Compound 6],17.1 ± 1.41
5,CCN(CC)c1ccc(/C=N/N2C(c3n[nH]c(=S)[nH]3)=C(O)c3ccccc3S2(=O)=O)cc1 [Compound 7],> 30
6,N#Cc1ccc2[nH]cc(C(c3ccccc3[N+](=O)[O-])c3c[nH]c4ccc(C#N)cc34)c2c1 [Compound 11],9.56 ± 0.134
7,"C[C@@H]1C[C@@H]([C@H](O)CC2CC(=O)NC(=O)C2)C(=O)[C@@H](C)C1 [cycloheximide, reference compound]",0.2

# Tested on: 3T3 (mouse fibroblast) cells
# Experiment: as above
# Assay type: cell-based
# Details: 48 hrs, 1-30 μM tested
# Description: as §1, §2, §3, §4
row,SMILES,IC50 [µM]
1,COc1cccc(/C=N/N2C(c3n[nH]c(=S)[nH]3)=C(O)c3ccccc3S2(=O)=O)c1O [Compound 10],19.5 ± 1.07
